We go through 41 compounds from US10919852B2, “Immunomodulator compounds” (CHEMOCENTRYX, INC., priority 2017, dated 2021).

What is called IC50 is the midpoint of a concentration-inhibition curve. Higher therefore signals weaker potency in that assay.

Sequence of human PD-L1 / Human PD-1 (Q9NZQ7 19-239): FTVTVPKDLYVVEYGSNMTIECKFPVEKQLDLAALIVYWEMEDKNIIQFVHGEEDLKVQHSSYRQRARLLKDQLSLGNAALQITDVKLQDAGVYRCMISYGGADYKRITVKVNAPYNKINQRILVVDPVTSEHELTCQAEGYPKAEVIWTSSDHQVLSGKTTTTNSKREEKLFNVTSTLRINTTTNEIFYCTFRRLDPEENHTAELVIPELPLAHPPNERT

This test addresses human PD-L1 / Human PD-1 (Homo sapiens (Human), UniProt Q9NZQ7). Kind of test: Enzyme-Linked Immunosorbent Assay (ELISA), PD-1/PD-L1 binding. The note with it: plate-coated human PD-L1, biotinylated human PD-1. As to the method: Biological Example: Enzyme-Linked Immunosorbent Assay—ELISA
96 Well plates were coated with […] of human PD-L1 (obtained from R&D) in PBS overnight at 4° C. The wells were then blocked with 2% BSA in PBS (W/V) with 0.05% TWEEN-20 for 1 hour at 37° C. The plates were washed 3 times with PBS/0.05% TWEEN-20 and the compounds were serial diluted (1:5) in dilution medium and added to the ELISA plates. Human PD-1 and biotin 0.3 μg/mL (ACRO Biosystems) were added and incubated for 1 hour at 37° C. then washed 3 times with PBS/0.05% TWEEN-20. A second block was performed with 2% BSA in PBS (W/V)/0.05% TWEEN-20 for 10 min at 37° C. and was washed 3 times with PBS/0.05% TWEEN-20. Streptavidin-HRP was added for 1 hour at 37° C. then washed 3 times with PBS/0.05% TWEEN-20. TMB substrate was added and reacted for 20 min at 37° C. A stop solution (2 N aqueous H2SO4) was added. The absorbance was read at 450 nm using a micro-plate spectrophotometer.
The compound `Cc1c(OCCCN2CCC(O)CC2)cccc1-c1cccc2c1CCC2Oc1cc(OCc2cc(C#N)cc(C#N)c2)c(CN[C@@H](CO)C(=O)O)cc1Cl` (some centres unmarked) registered an IC50 of less than 5 nM.

In turn, `Cc1c(OCCCN2CCC(O)CC2)cccc1-c1cccc2c1CCC2Oc1cc(OCc2cc(C#N)cc(C#N)c2)c(CN[C@@H]2CCCC[C@@H]2O)cc1Cl` (some centres unmarked) had an IC50 of less than 5 nM.

The compound `Cc1c(OCCCN2CCC(O)CC2)cccc1-c1cccc2c1CC[C@@H]2Oc1cc(OCc2cncc(C#N)c2)c(CN[C@H](C(=O)O)[C@@H](C)O)cc1Cl` displayed an IC50 of less than 5 nM.

As for `C[C@@H](O)[C@H](NCc1cc(Cl)c(O[C@H]2CCc3c(-c4cccc(OCCCN5CCC(O)CC5)c4F)cccc32)cc1OCc1cncc(C#N)c1)C(=O)O`, the IC50 was less than 5 nM.

Turning to `CCOc1cc(O[C@H]2CCc3c(-c4cccc(OCCCN5CC[C@@H](O)C5)c4C)cccc32)c(Cl)cc1CN[C@@H]1CCCC[C@@H]1O`, the IC50 was in the range of 5 to 500 nM.

For the compound `CCOc1cc(O[C@H]2CCc3c(-c4cccc(OCCCN5CC[C@@H](O)C5)c4C)cccc32)c(Cl)cc1CN[C@@H](CO)C(=O)OC(C)C`, the half-inhibitory concentration (IC50) was 5 to 500 nM.

Regarding `CCOc1cc(O[C@H]2CCc3c(-c4cccc(OCCCN5CC[C@@H](O)C5)c4C)cccc32)c(Cl)cc1CN[C@@](C)(CO)C(=O)OC(C)C`, the IC50 is 5 to 500 nM.

The compound `CCOc1cc(O[C@H]2CCc3c(-c4cccc(OCCCN5CC[C@@H](O)C5)c4C)cccc32)c(Cl)cc1CN1CCCC[C@H]1C(=O)O` gave an IC50 of 5 to 500 nM.

`Cc1c(OCCCN2CCC(O)CC2)cccc1-c1cccc2c1CC[C@@H]2Oc1cc(OCc2cncc(C#N)c2)c(CN[C@H](C(N)=O)[C@@H](C)O)cc1Cl` gave an IC50 of less than 5 nM.

For the compound `Cc1c(OCCCN2CCC(O)CC2)cccc1-c1cccc2c1CC[C@@H]2Oc1cc(OCc2cncc(C#N)c2)c(CN[C@@H](CO)C(N)=O)cc1Cl`, the IC50 was less than 5 nM.

In turn, `Cc1c(OCCCN2CCC(O)CC2)cccc1-c1cccc2c1CC[C@@H]2Oc1cc(OCc2cncc(C#N)c2)c(CN[C@H](C(=O)NS(C)(=O)=O)[C@@H](C)O)cc1Cl` showed an IC50 of less than 5 nM.

`Cc1c(OCCCN2CCC(O)CC2)cccc1-c1cccc2c1CC[C@@H]2Oc1cc(OCc2cncc(C#N)c2)c(CN2CCC(O)CC2)cc1Cl` came in with a 50% inhibitory concentration (IC50) of less than 5 nM.

The compound `Cc1c(OCCCN2CCC(O)CC2)cccc1-c1cccc2c1CC[C@@H]2Oc1cc(OCc2cncc(C#N)c2)c(CN2CC[C@H](O)C2)cc1Cl` returned an IC50 of less than 5 nM.

Turning to `CCOc1cc(O[C@H]2CCc3c(-c4cccc(OCCCN5CC[C@@H](O)C5)c4C)cccc32)c(Cl)cc1CNC(CO)CO`, the IC50 was less than 5 nM.

Turning to `CCOc1cc(O[C@H]2CCc3c(-c4cccc(OCCCN5CC[C@@H](O)C5)c4C)cccc32)c(Cl)cc1CNC(C)(CO)CO`, the IC50 was less than 5 nM.

In turn, `Cc1c(OCCCN2CCC(O)CC2)cccc1-c1cccc2c1CC[C@@H]2Oc1cc(OCc2cncc(C#N)c2)c(CN2CC[C@@H](O)C2)cc1Cl` showed an IC50 of less than 5 nM.

`Cc1c(OCCCN2CCC(O)CC2)cccc1-c1cccc2c1CC[C@@H]2Oc1cc(OCc2cncc(C#N)c2)c(CNCC2CCC(=O)N2)cc1Cl` (some centres unmarked): the IC50 is less than 5 nM.

`Cc1c(OCCCN2CCC(O)CC2)cccc1-c1cccc2c1CC[C@@H]2Oc1cc(OCc2cncc(C#N)c2)c(CNCC(C)(C)O)cc1Cl` displayed an IC50 of less than 5 nM.

In turn, `Cc1c(OCCCN2CCC(O)CC2)cccc1-c1cccc2c1CC[C@@H]2Oc1cc(OCc2cncc(C#N)c2)c(CN2CC(C(=O)O)C2)cc1Cl` returned an IC50 of less than 5 nM.

The compound `Cc1c(OCCCN2CCC(O)CC2)cccc1-c1cccc2c1CC[C@@H]2Oc1cc(OCc2cncc(C#N)c2)c(CN[C@@H]2CCCC[C@H]2O)cc1Cl` displayed an IC50 of less than 5 nM.

Consider `Cc1c(OCCCN2CCC(O)CC2)cccc1-c1cccc2c1CC[C@@H]2Oc1cc(OCc2cncc(C#N)c2)c(CNC(C)(CO)CO)cc1Cl`, for which the IC50 is 5 to 500 nM.

`Cc1c(OCCCN2CCC(O)CC2)cccc1-c1cccc2c1CC[C@@H]2Oc1cc(OCc2cncc(C#N)c2)c(CN2CC(O)C2)cc1Cl` showed an IC50 of less than 5 nM.

With `Cc1c(OCCCN2CCC(O)CC2)cccc1-c1cccc2c1CC[C@@H]2Oc1cc(OCc2cncc(C#N)c2)c(CNCc2cn(C)cn2)cc1Cl`, the IC50 was less than 5 nM.

In the case of `Cc1c(OCCCN2CCC(O)CC2)cccc1-c1cccc2c1CC[C@@H]2Oc1cc(OCc2cncc(C#N)c2)c(CN[C@@H]2CCC[C@H]2O)cc1Cl`, the IC50 is less than 5 nM.

The compound `Cc1c(OCCCN2CCC(O)CC2)cccc1-c1cccc2c1CC[C@@H]2Oc1cc(OCc2cncc(C#N)c2)c(CNC2(C(=O)O)CCC2)cc1Cl` registered an IC50 of less than 5 nM.

The compound `Cc1c(OCCCN2CCC(O)CC2)cccc1-c1cccc2c1CC[C@@H]2Oc1cc(OCc2cncc(C#N)c2)c(CN[C@@H](CNC(=N)N)C(=O)O)cc1Cl` returned an IC50 of less than 5 nM.

`Cc1c(OCCCN2CCC(O)CC2)cccc1-c1cccc2c1CC[C@@H]2Oc1cc(OCc2cncc(C#N)c2)c(CN2CCC(C)(O)CC2)cc1Cl` gave an IC50 of less than 5 nM.

For the compound `COC(=O)C1(O)CCN(CCCOc2cccc(-c3cccc4c3CC[C@@H]4Oc3cc(OCc4cncc(C#N)c4)c(CN[C@H](C(=O)O)[C@@H](C)O)cc3Cl)c2C)C1` (some centres unmarked), the IC50 is less than 5 nM.

For the compound `Cc1c(OCCCN2CC(C)(O)C2)cccc1-c1cccc2c1CC[C@@H]2Oc1cc(OCc2cncc(C#N)c2)c(CNCC2CCC(=O)N2)cc1Cl` (some centres unmarked), the IC50 was less than 5 nM.

In turn, `Cc1c(OCCCN2C3CCC2CC(O)C3)cccc1-c1cccc2c1CC[C@@H]2Oc1cc(OCc2cncc(C#N)c2)c(CNCC2CCC(=O)N2)cc1Cl` (some centres unmarked) came in with an IC50 of less than 5 nM.

`Cc1c(OCCCN2CCC(F)CC2)cccc1-c1cccc2c1CC[C@@H]2Oc1cc(OCc2cncc(C#N)c2)c(CNCC2CCC(=O)N2)cc1Cl` (some centres unmarked) had an IC50 of less than 5 nM.

`Cc1c(OCCCN2CC(O)C2)cccc1-c1cccc2c1CC[C@@H]2Oc1cc(OCc2cncc(C#N)c2)c(CNCC2CCC(=O)N2)cc1Cl` (some centres unmarked) yielded an IC50 of less than 5 nM.

On to `N#Cc1cncc(COc2cc(O[C@H]3CCc4c(-c5cccc(OCCCN6CCC(O)CC6)c5Cl)cccc43)c(Cl)cc2CNCC2CCC(=O)N2)c1` (some centres unmarked), for which the IC50 was less than 5 nM.

In turn, `C[C@@H](O)[C@H](NCc1cc(Cl)c(O[C@H]2CCc3c(-c4cccc(OCCCN5CCC(O)CC5)c4Cl)cccc32)cc1OCc1cncc(C#N)c1)C(N)=O` returned an IC50 of less than 5 nM.

Compound `Cc1c(OCCCN2CCC(F)CC2)cccc1-c1cccc2c1CC[C@@H]2Oc1cc(OCc2cncc(C#N)c2)c(CN[C@H](C(N)=O)[C@@H](C)O)cc1Cl` had an IC50 of 5 to 500 nM.

For the compound `Cc1c(OCCCN2CCC(O)CC2)cccc1-c1cccc2c1C[C@@H](F)[C@@H]2Oc1cc(OCc2cncc(C#N)c2)c(CN[C@@H](CO)C(=O)O)cc1Cl`, the IC50 was less than 5 nM.

Take `Cc1c(OCCCN2CCC(O)CC2)cccc1-c1cccc2c1C[C@H](F)[C@@H]2Oc1cc(OCc2cncc(C#N)c2)c(CN[C@H](C(=O)O)[C@@H](C)O)cc1Cl`: the IC50 is less than 5 nM.

`Cc1c(OCCCN2CCC(O)CC2)cccc1-c1cccc2c1C[C@H](F)[C@@H]2Oc1cc(OCc2cncc(C#N)c2)c(CN[C@@](C)(CO)C(=O)O)cc1Cl` came in with an IC50 of less than 5 nM.

The compound `Cc1c(OCCCN2CCC(O)CC2)cccc1-c1cccc2c1C[C@H](F)[C@@H]2Oc1cc(OCc2cncc(C#N)c2)c(CN[C@@H]2CCCC[C@@H]2O)cc1Cl` gave an IC50 of less than 5 nM.

In turn, `Cc1c(OCCCN2CC[C@H](F)C2)cccc1-c1cccc2c1CC[C@@H]2Oc1cc(OCc2cncc(C#N)c2)c(CN[C@@H]2CCCC[C@@H]2O)cc1Cl` registered an IC50 of less than 5 nM.

The compound `Cc1c(OCCCN2CC[C@@H](F)C2)cccc1-c1cccc2c1CC[C@@H]2Oc1cc(OCc2cncc(C#N)c2)c(CN[C@@H]2CCCC[C@@H]2O)cc1Cl` yielded an IC50 of less than 5 nM.
